Calls of active or inactive are those of the source. The calls are words filed in the database; no cut-off is given here.
What was measured:
[1] = test system: CAL-27; test: Cytotoxicity against human CAL-27 cells incubated for 72 hrs by MTT assay; assay type: functional, cell-based; details: CAL-27, 72 h
[2] = Antiproliferative activity against human HN-6 cells assessed as inhibition rate at 0.1 uM incubated for 72 hrs by MTT assay relative to control; assay type: functional
[3] = Cytotoxicity against human HN-6 cells incubated for 72 hrs by MTT assay; assay type: functional, cell-based; details: HN-6, 72 h
[4] = test system: SCC-25; test: Cytotoxicity against human SCC-25 cells incubated for 72 hrs by MTT assay; assay type: functional, cell-based; details: SCC-25, 72 h
[5] = Antiproliferative activity against human WSU HN-30 cells assessed as inhibition rate at 0.1 uM incubated for 72 hrs by MTT assay relative to control; assay type: functional; details: WSU-HN30
[6] = Cytotoxicity against human L02 cells incubated for 72 hrs by MTT assay; assay type: toxicity, cell-based
[7] = test system: CAL-27; test: Antiproliferative activity against human CAL-27 cells assessed as inhibition rate at 0.1 uM incubated for 72 hrs by MTT assay relative to control; assay type: functional
[8] = test system: SCC-9; test: Antiproliferative activity against human SCC-9 cells assessed as inhibition rate at 0.1 uM incubated for 72 hrs by MTT assay relative to control; assay type: functional
[9] = test system: SCC-25; test: Antiproliferative activity against human SCC-25 cells assessed as inhibition rate at 0.1 uM incubated for 72 hrs by MTT assay relative to control; assay type: functional
[10] = Antiproliferative activity against human L02 cells assessed as inhibition rate at 0.1 uM incubated for 72 hrs by MTT assay relative to control; assay type: toxicity, cell-based
[11] = test system: SCC-9; test: Cytotoxicity against human SCC-9 cells incubated for 72 hrs by MTT assay; assay type: functional, cell-based; details: SCC-9, 72 h
[12] = Cytotoxicity against human […] incubated for 72 hrs by MTT assay; assay type: functional, cell-based; details: WSU-HN30, 72 h
[13] = test system: CAL-27; test: Antiproliferative activity against human CAL-27 cells assessed as inhibition of cell communities at 10 uM treated for 11 days by plate clone formation assay; assay type: functional, cell-based; details: time 11.0 day

SMILES	IC50 [1] [µM]	inhibition at 0.1 µM [2] [%]	IC50 [3] [µM]	IC50 [4] [µM]	inhibition at 0.1 µM [5] [%]	IC50 at 72 h [6] [µM]	inhibition at 0.1 µM [7] [%]	inhibition at 0.1 µM [8] [%]	inhibition at 0.1 µM [9] [%]	inhibition at 72 h, 0.1 µM [10] [%]	IC50 [11] [µM]	IC50 [12] [µM]	Activity [13]
COc1cc2c(O[C@@H]3O[C@@H]4CO[C@@H](c5cccs5)O[C@H]4[C@H](O)[C@H]3O)c3c(c(-c4ccc5c(c4)OCO5)c2cc1OC)C(=O)OC3	0.0181	56.3	0.0681	0.00934	41.3	> 10	50.7	54	52.5	7.19	0.0315	0.12	–
COc1cc2c(O[C@@H]3O[C@@H]4CO[C@@H](c5ccco5)O[C@H]4[C@H](O)[C@H]3O)c3c(c(-c4ccc5c(c4)OCO5)c2cc1OC)C(=O)OC3	0.00547	58.7	0.00858	0.00431	45.7	> 10	50.9	52.9	54.6	5.23	0.00497	0.243	Active
COc1cc2c(O[C@@H]3O[C@@H]4CO[C@@H](c5csc(Br)c5)O[C@H]4[C@H](O)[C@H]3O)c3c(c(-c4ccc5c(c4)OCO5)c2cc1OC)C(=O)OC3	0.0145	57.6	0.00607	0.0864	49.9	3.68	78.3	72.3	58.4	20.8	0.0164	0.00733	–
COc1cc2c(O[C@@H]3O[C@@H]4CO[C@@H](C5CCCCC5)O[C@H]4[C@H](O)[C@H]3O)c3c(c(-c4ccc5c(c4)OCO5)c2cc1OC)C(=O)OC3	0.0116	62.1	0.0148	0.0152	40.6	4.67	50.5	46.6	47.4	11.5	0.0297	0.0352	–
COc1cc2c(O[C@@H]3O[C@@H]4CO[C@@H](c5ccsc5)O[C@H]4[C@H](OC(C)=O)[C@H]3OC(C)=O)c3c(c(-c4ccc5c(c4)OCO5)c2cc1OC)C(=O)OC3	0.0201	61.1	0.0116	0.0433	49.4	> 10	48.2	45.8	47.4	9.07	0.0161	0.0926	–

Reference: ChEMBL document CHEMBL6153048, “Synthesis and pharmacological evaluation of natural product diphyllin derivatives against head and neck squamous cell carcinoma” (Eur J Med Chem, 2025)
